For orientation: MIC means the lowest concentration that inhibits growth of the organism. Read a low MIC as a more susceptible organism.

The record followed here is ChEMBL document CHEMBL3045157, “Synthesis and evaluation of in vitro antitubercular activity and antimicrobial activity of some novel 4H-chromeno[2,3-d]pyrimidine via 2-amino-4-phenyl-4H-chromene-3-carbonitriles” (2011).

Values after ≈ are worked out from the molar mass of the structure shown.

Common to all, as to type: functional
One assay has as its system Aspergillus niger. Briefly: Antifungal activity against Aspergillus niger MTCC 282 after 24 hr by serial dilution method.
A further assay relates to Staphylococcus aureus. Briefly: Antibacterial activity against Staphylococcus aureus ATCC 25923 after 24 hr by serial dilution method. The following applies: ATCC 25923, 24 h.
The test system of another assay is Streptococcus pyogenes. Briefly: Antibacterial activity against Streptococcus pyogenes MTCC 443 after 24 hr by serial dilution method. Particulars: MTCC 443, 24 h.
A further assay relates to Pseudomonas aeruginosa. Briefly: Antibacterial activity against Pseudomonas aeruginosa MTCC 441 after 24 hr by serial dilution method. The following applies: MTCC 441, 24 h.
The next assay relates to Escherichia coli. Briefly: Antibacterial activity against Escherichia coli ATCC 25922 after 24 hr by serial dilution method. The following applies: ATCC 25922, 24 h.
For assay [1], the system named is Mycobacterium tuberculosis. Put plainly: Antitubercular activity against Mycobacterium tuberculosis H37Rv by agar microdilution method.

Compound NYSTATIN had an MIC in the assay with Aspergillus niger of 100 µg/mL.

For `Nc1nc(=O)[nH]c2c1C(c1ccccc1)c1c(ccc3ccccc13)O2` (stereo not given), the MIC with Aspergillus niger (MTCC 282, 24 h) amounted to 250 µg/mL (≈ 732 µM); against Staphylococcus aureus, 62.5 µg/mL (≈ 183 µM); against Streptococcus pyogenes, 62.5 µg/mL (≈ 183 µM); in the assay with Pseudomonas aeruginosa, 500 µg/mL (≈ 1460 µM); against Escherichia coli it was 250 µg/mL (≈ 732 µM); in assay [1], 250 µg/mL (≈ 732 µM).

For `Nc1nc(=O)[nH]c2c1C(c1ccccc1)c1ccc3ccccc3c1O2` (stereo not given), the MIC is 500 µg/mL (≈ 1460 µM) in the assay on Aspergillus niger (MTCC 282, 24 h); 125 µg/mL (≈ 366 µM) in the assay on Staphylococcus aureus; 125 µg/mL (≈ 366 µM) in the assay with Streptococcus pyogenes; 250 µg/mL (≈ 732 µM) with Pseudomonas aeruginosa; 500 µg/mL (≈ 1460 µM) against Escherichia coli; 1000 µg/mL (≈ 2930 µM) in assay [1].

On to `Nc1nc(=S)[nH]c2c1C(c1ccccc1)c1ccc3ccccc3c1O2` (stereo not given), for which the MIC in the assay with Aspergillus niger (MTCC 282, 24 h) came out at 1000 µg/mL (≈ 2800 µM); in the assay with Staphylococcus aureus it was 500 µg/mL (≈ 1400 µM); in the assay on Streptococcus pyogenes, 500 µg/mL (≈ 1400 µM); in the assay with Pseudomonas aeruginosa, 125 µg/mL (≈ 350 µM); against Escherichia coli it was 500 µg/mL (≈ 1400 µM); in assay [1], 1000 µg/mL (≈ 2800 µM).

In the case of `O=c1[nH]cnc2c1C(c1ccccc1)c1ccc3ccccc3c1O2` (stereo not given), the MIC with Aspergillus niger (MTCC 282, 24 h) is 1000 µg/mL (≈ 3060 µM); in the assay with Staphylococcus aureus, 62.5 µg/mL (≈ 192 µM); in the assay with Streptococcus pyogenes, 62.5 µg/mL (≈ 192 µM); against Pseudomonas aeruginosa, 250 µg/mL (≈ 766 µM); in the assay on Escherichia coli it was 125 µg/mL (≈ 383 µM); in assay [1], 125 µg/mL (≈ 383 µM).

As to `O=c1[nH]cnc2c1C(c1ccccc1)c1ccccc1O2` (stereo not given), the MIC in the assay on Aspergillus niger (MTCC 282, 24 h) was 500 µg/mL (≈ 1810 µM); in the assay with Staphylococcus aureus it was 250 µg/mL (≈ 905 µM); with Streptococcus pyogenes it was 500 µg/mL (≈ 1810 µM); in the assay on Pseudomonas aeruginosa, 250 µg/mL (≈ 905 µM); with Escherichia coli, 250 µg/mL (≈ 905 µM); in assay [1], 500 µg/mL (≈ 1810 µM).

`Nc1nc(=O)[nH]c2c1C(c1ccccc1)c1ccc3cccnc3c1O2` (stereo not given): the MIC worked out at 250 µg/mL (≈ 730 µM) in the assay on Aspergillus niger (MTCC 282, 24 h); 125 µg/mL (≈ 365 µM) with Staphylococcus aureus; 125 µg/mL (≈ 365 µM) against Streptococcus pyogenes; 500 µg/mL (≈ 1460 µM) in the assay with Pseudomonas aeruginosa; 500 µg/mL (≈ 1460 µM) in the assay on Escherichia coli; 125 µg/mL (≈ 365 µM) in assay [1].

Regarding `S=c1[nH]c2c(c(=S)[nH]1)C(c1ccccc1)c1ccccc1O2` (stereo not given), the MIC against Aspergillus niger (MTCC 282, 24 h) was 1000 µg/mL (≈ 3080 µM); with Staphylococcus aureus, 500 µg/mL (≈ 1540 µM); against Streptococcus pyogenes, 500 µg/mL (≈ 1540 µM); in the assay with Pseudomonas aeruginosa it was 250 µg/mL (≈ 771 µM); in the assay with Escherichia coli, 250 µg/mL (≈ 771 µM); in assay [1] it was 500 µg/mL (≈ 1540 µM).

For `S=c1[nH]c2c(c(=S)[nH]1)C(c1ccccc1)c1ccc3ccccc3c1O2` (stereo not given), the MIC against Aspergillus niger (MTCC 282, 24 h) came out at 500 µg/mL (≈ 1340 µM); with Staphylococcus aureus, 125 µg/mL (≈ 334 µM); against Streptococcus pyogenes it was 250 µg/mL (≈ 668 µM); with Pseudomonas aeruginosa it was 250 µg/mL (≈ 668 µM); against Escherichia coli it was 250 µg/mL (≈ 668 µM); in assay [1], 500 µg/mL (≈ 1340 µM).

With `Oc1ccc2c(c1)Oc1[nH]c(=S)[nH]c(=S)c1C2c1ccccc1` (stereo not given), the MIC came out at 1000 µg/mL (≈ 2940 µM) in the assay on Aspergillus niger (MTCC 282, 24 h); 62.5 µg/mL (≈ 184 µM) in the assay on Staphylococcus aureus; 62.5 µg/mL (≈ 184 µM) in the assay with Streptococcus pyogenes; 250 µg/mL (≈ 734 µM) against Pseudomonas aeruginosa; 125 µg/mL (≈ 367 µM) in the assay on Escherichia coli; 200 µg/mL (≈ 587 µM) in assay [1].

In the case of `O=C(O)c1cn(C2CC2)c2cc(N3CCNCC3)c(F)cc2c1=O` [CIPROFLOXACIN], the MIC against Staphylococcus aureus came out at 50 µg/mL (≈ 151 µM); in the assay with Streptococcus pyogenes, 50 µg/mL (≈ 151 µM); against Escherichia coli, 25 µg/mL (≈ 75.4 µM).

Regarding `Nc1nc(=O)[nH]c2c1C(c1ccccc1)c1ccc(O)cc1O2` (stereo not given), the MIC in the assay with Aspergillus niger (MTCC 282, 24 h) worked out at 250 µg/mL (≈ 814 µM); in the assay on Staphylococcus aureus, 125 µg/mL (≈ 407 µM); against Streptococcus pyogenes, 250 µg/mL (≈ 814 µM); with Pseudomonas aeruginosa, 125 µg/mL (≈ 407 µM); in the assay with Escherichia coli, 250 µg/mL (≈ 814 µM); in assay [1] it was 125 µg/mL (≈ 407 µM).

Regarding `O=c1[nH]cnc2c1C(c1ccccc1)c1ccc(O)cc1O2` (stereo not given), the MIC stood at 1000 µg/mL (≈ 3420 µM) against Aspergillus niger (MTCC 282, 24 h); 500 µg/mL (≈ 1710 µM) in the assay on Staphylococcus aureus; 500 µg/mL (≈ 1710 µM) with Streptococcus pyogenes; 250 µg/mL (≈ 855 µM) in the assay on Pseudomonas aeruginosa; 62.5 µg/mL (≈ 214 µM) in the assay with Escherichia coli; 62.5 µg/mL (≈ 214 µM) in assay [1].

Consider `O=c1[nH]cnc2c1C(c1ccccc1)c1c(ccc3ccccc13)O2` (stereo not given), for which the MIC is 500 µg/mL (≈ 1530 µM) against Aspergillus niger (MTCC 282, 24 h); 125 µg/mL (≈ 383 µM) against Staphylococcus aureus; 125 µg/mL (≈ 383 µM) against Streptococcus pyogenes; 125 µg/mL (≈ 383 µM) in the assay with Pseudomonas aeruginosa; 125 µg/mL (≈ 383 µM) in the assay on Escherichia coli; 125 µg/mL (≈ 383 µM) in assay [1].

For the compound `CO[C@H]1/C=C/O[C@@]2(C)Oc3c(C)c(O)c4c(O)c(c(/C=N/N5CCN(C)CC5)c(O)c4c3C2=O)NC(=O)/C(C)=C\C=C\[C@H](C)[C@H](O)[C@@H](C)[C@@H](O)[C@@H](C)[C@H](OC(C)=O)[C@@H]1C` [RIFAMPIN], the MIC in assay [1] was found to be 40 µg/mL (≈ 48.6 µM).

Turning to `Nc1nc(=S)[nH]c2c1C(c1ccccc1)c1ccccc1O2` (stereo not given), the MIC worked out at 125 µg/mL (≈ 407 µM) against Aspergillus niger (MTCC 282, 24 h); 250 µg/mL (≈ 813 µM) with Staphylococcus aureus; 250 µg/mL (≈ 813 µM) with Streptococcus pyogenes; 125 µg/mL (≈ 407 µM) in the assay with Pseudomonas aeruginosa; 125 µg/mL (≈ 407 µM) against Escherichia coli; 500 µg/mL (≈ 1630 µM) in assay [1].

In the case of `S=c1[nH]c2c(c(=S)[nH]1)C(c1ccccc1)c1ccc3cccnc3c1O2` (stereo not given), the MIC in the assay on Aspergillus niger (MTCC 282, 24 h) stood at 500 µg/mL (≈ 1330 µM); in the assay with Staphylococcus aureus, 62.5 µg/mL (≈ 166 µM); against Streptococcus pyogenes, 62.5 µg/mL (≈ 166 µM); in the assay on Pseudomonas aeruginosa, 125 µg/mL (≈ 333 µM); in the assay with Escherichia coli it was 125 µg/mL (≈ 333 µM); in assay [1] it was 200 µg/mL (≈ 533 µM).

Turning to `Nc1nc(=S)[nH]c2c1C(c1ccccc1)c1c(ccc3ccccc13)O2` (stereo not given), the MIC against Aspergillus niger (MTCC 282, 24 h) was 1000 µg/mL (≈ 2800 µM); with Staphylococcus aureus it was 250 µg/mL (≈ 699 µM); against Streptococcus pyogenes, 500 µg/mL (≈ 1400 µM); in the assay with Pseudomonas aeruginosa, 500 µg/mL (≈ 1400 µM); in the assay on Escherichia coli, 500 µg/mL (≈ 1400 µM); in assay [1] it was 1000 µg/mL (≈ 2800 µM).

Take `S=c1[nH]c2c(c(=S)[nH]1)C(c1ccccc1)c1c(ccc3ccccc13)O2` (stereo not given): the MIC stood at 500 µg/mL (≈ 1340 µM) in the assay on Aspergillus niger (MTCC 282, 24 h); 125 µg/mL (≈ 334 µM) against Staphylococcus aureus; 250 µg/mL (≈ 668 µM) against Streptococcus pyogenes; 125 µg/mL (≈ 334 µM) against Pseudomonas aeruginosa; 250 µg/mL (≈ 668 µM) with Escherichia coli; 100 µg/mL (≈ 267 µM) in assay [1].

For `Nc1nc(=S)[nH]c2c1C(c1ccccc1)c1ccc(O)cc1O2` (stereo not given), the MIC against Aspergillus niger (MTCC 282, 24 h) was 125 µg/mL (≈ 387 µM); against Staphylococcus aureus, 500 µg/mL (≈ 1550 µM); with Streptococcus pyogenes, 250 µg/mL (≈ 773 µM); against Pseudomonas aeruginosa it was 125 µg/mL (≈ 387 µM); against Escherichia coli, 250 µg/mL (≈ 773 µM); in assay [1], 500 µg/mL (≈ 1550 µM).

As for `Nc1nc(=O)[nH]c2c1C(c1ccccc1)c1ccccc1O2` (stereo not given), the MIC against Aspergillus niger (MTCC 282, 24 h) was found to be 500 µg/mL (≈ 1720 µM); in the assay with Staphylococcus aureus it was 125 µg/mL (≈ 429 µM); against Streptococcus pyogenes, 125 µg/mL (≈ 429 µM); against Pseudomonas aeruginosa it was 62.5 µg/mL (≈ 215 µM); in the assay on Escherichia coli, 62.5 µg/mL (≈ 215 µM); in assay [1], 500 µg/mL (≈ 1720 µM).

Take `O=c1[nH]cnc2c1C(c1ccccc1)c1ccc3cccnc3c1O2` (stereo not given): the MIC against Aspergillus niger (MTCC 282, 24 h) was found to be 500 µg/mL (≈ 1530 µM); against Staphylococcus aureus, 125 µg/mL (≈ 382 µM); with Streptococcus pyogenes it was 250 µg/mL (≈ 764 µM); with Pseudomonas aeruginosa it was 125 µg/mL (≈ 382 µM); with Escherichia coli, 250 µg/mL (≈ 764 µM); in assay [1], 500 µg/mL (≈ 1530 µM).

`COC1=CC(=O)C[C@@H](C)[C@]12Oc1c(Cl)c(OC)cc(OC)c1C2=O` [GRISEOFULVIN]: the MIC in the assay on Aspergillus niger (MTCC 282, 24 h) came out at 100 µg/mL (≈ 283 µM).

As to `CC1(C)S[C@@H]2[C@H](NC(=O)[C@H](N)c3ccccc3)C(=O)N2[C@H]1C(=O)O` [AMPICILLIN], the MIC was 100 µg/mL (≈ 286 µM) against Staphylococcus aureus, 250 µg/mL (≈ 715 µM) in the assay on Streptococcus pyogenes, 100 µg/mL (≈ 286 µM) with Pseudomonas aeruginosa and 100 µg/mL (≈ 286 µM) against Escherichia coli.

Take `Nc1nc(=S)[nH]c2c1C(c1ccccc1)c1ccc3cccnc3c1O2` (stereo not given): the MIC against Aspergillus niger (MTCC 282, 24 h) stood at 500 µg/mL (≈ 1390 µM); against Staphylococcus aureus it was 125 µg/mL (≈ 349 µM); in the assay on Streptococcus pyogenes, 250 µg/mL (≈ 697 µM); with Pseudomonas aeruginosa, 62.5 µg/mL (≈ 174 µM); against Escherichia coli, 62.5 µg/mL (≈ 174 µM); in assay [1] it was 500 µg/mL (≈ 1390 µM).
